# Assay results published in patent US20040029167A1, “Inducible COMT_II promoter, chimeric gene containing same and plants transformed therewith” (priority 1999, published 2004).
# System: COMT II (−1215 to +24)/GUS
# Assay: Induction of GUS activity in COMT II (−1215 to +24)/GUS transgenic plants by elicitors and chemical products
# Format: in vivo, Nicotiana tabacum cv. Samsun NN
# Settings: for GUS Activity: leaves 16 h after infiltration, SA 1 mM, INA 1 mM, chitins 100 μg/ml, glucans 200 μg/ml, pectins 200 μg/ml; for Induction %: nontreated control C = 100, 16 h after infiltration, concentrations as for GUS Activity column
# Method: The transgenic plants containing the construct COMT II (−1215 to +24)/GUS were treated with various chemical products, regulators of defense reactions, with methyl-2,6-dichloroisonicotinic (INA) and salicylic acid (SA), with fungal elicitors such as glucans or fragments of chitin and an elicitor of plant origin, such as pectin. The GUS activity is expressed in pmol MU/min.mg. The control (C) corresponds to the basal GUS activity in the nontreated transformed plants.
# The induction of the 1239 bp promoter was studied during injury or after treatment with methyl jasmonate (molecule which plays a role in defense response signaling during injury) or with benzothiadiazole (BTH) (chemical SAR-inducer). The GUS activity is measured 16 h after treatment.
# The COMT II and GUS activities were assayed on 100 mg of tissues. The tissue is homogenized in a 100 mM sodium phosphate buffer at pH 7.5 containing 10 mM of DTT, after addition of polyclar AT (Serva) and of quartz. The crude extracts are clarified by centrifugation and by filtration on glass wool. The GUS and COMT II activities are measured on the same crude extracts. For measuring the COMT II activity, an aliquot of the protein extract is added to 1 ml of phosphate buffer comprising 100 μM of catechol and 50 μM of tritiated S-adenosyl-L-methionine (1.5×10^5 cpm/ml) and incubated for 3 hours at 37° C. The reaction is stopped by adding 100 μl of 9M sulfuric acid. The radioactive reaction product, […], is extracted with 5 ml of an NA scintillation solution (Beckman) and the radioactivity is counted on a Beckman LS 9000 machine. The fluorimetric measurement of the GUS activity is performed on the same samples, according to the procedure of Jefferson et al. (1987). The protein content is determined by the Bradford method (1976) using Biorad reagents.
# Treatment with an elicitor: Solutions are infiltrated, using a syringe equipped with a fine needle, in the mesophyl of the leaves. The infiltrated regions are delimited with a felt-tip marker. The infiltrated regions are harvested 16 hours after treatment. The leaves are treated with a solution of β-megaspermine, a protein elicitor purified from a Phytophthora megasperma culture medium (Kauffmann et al., 1993), or of oligosaccharides such as chitin oligomers (100 μg/ml), glucan fragments (200 μg/ml) and pectin fragments (200 μg/ml). The control plants are infiltrated with water.
# Chemical treatments: (1) Solutions of SA (1 mM) or of INA (50 mM) are infiltrated into tobacco leaves using.the protocol described for the treatment with elicitors. (2) Under identical culture conditions, solutions of SA (10 mM), INA (1 mM) or BTH (50 mM) are sprayed onto the transgenic plants. The tissues are recovered 16 hours after treatment. Plants treated with water are used as a control. (3) Seven-week-old plants or leaves of vitroplants kept alive on water are transferred into transparent, hermetically sealed dishes and subjected to an atmosphere of 3.5 mM of MeJa (Serva). The tissues are removed at various times after treatment. The control plants are placed in the same dishes without MeJa.
# [1] = 1239 bp promoter, 16 h after treatment
Compound,GUS Activity,Induction % [%],induction factors [1],"Induction of the GUS activity % (1239 bp promoter, 16 h after treatment, nontreated plants C = 100) [%]"
"O=C(O)c1ccccc1O [SA, salicylic acid]","1,200 pmol MU/min.mg",200,–,–
"c1ccc2snnc2c1 [BTH, benzothiadiazole]",–,–,2.5,250
"COC(=O)c1cc(Cl)nc(Cl)c1 [INA, methyl-2,6-dichloroisonicotinic]","1,700 pmol MU/min.mg",200,–,–
"CC/C=C\CC1C(=O)CCC1CC(=O)OC (stereo not shown) [Methyl jasmonate, methyl jasmonate]",–,–,14.5,–
